Measurements as given in ChEMBL document CHEMBL3603736, “3-Substituted pyrazoles and 4-substituted triazoles as inhibitors of human 15-lipoxygenase-1” (Bioorg Med Chem Lett, 2015).

Columns and labels:
[1] = biological target: T1, Polyunsaturated fatty acid lipoxygenase ALOX15 (Homo sapiens, UniProt P16050)
T1 sequence (P16050 whole entry): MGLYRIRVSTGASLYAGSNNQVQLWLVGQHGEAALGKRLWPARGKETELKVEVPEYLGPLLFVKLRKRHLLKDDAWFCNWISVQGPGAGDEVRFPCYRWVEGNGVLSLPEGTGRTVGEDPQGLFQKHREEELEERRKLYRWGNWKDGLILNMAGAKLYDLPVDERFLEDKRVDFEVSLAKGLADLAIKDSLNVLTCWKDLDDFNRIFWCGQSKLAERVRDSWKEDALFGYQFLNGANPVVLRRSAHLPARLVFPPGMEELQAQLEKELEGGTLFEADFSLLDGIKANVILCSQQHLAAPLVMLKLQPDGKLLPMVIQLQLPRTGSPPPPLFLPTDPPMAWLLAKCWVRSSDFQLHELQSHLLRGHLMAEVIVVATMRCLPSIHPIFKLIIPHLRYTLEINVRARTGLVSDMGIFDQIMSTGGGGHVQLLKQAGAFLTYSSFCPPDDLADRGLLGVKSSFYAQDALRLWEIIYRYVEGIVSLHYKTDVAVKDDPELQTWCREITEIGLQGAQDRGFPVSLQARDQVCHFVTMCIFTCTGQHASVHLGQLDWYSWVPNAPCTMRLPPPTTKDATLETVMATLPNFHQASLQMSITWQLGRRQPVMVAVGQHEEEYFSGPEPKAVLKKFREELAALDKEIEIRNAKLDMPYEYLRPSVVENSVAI
Description: (§1) Inhibition of 15-LOX-1 in human L1236 cells assessed as reduction in conversion of arachidonic acid to 15-HETE pre-incubated 5 min before arachidonic acid substrate addition by HPLC-UV spectroscopy

[2] = biological target: T1, Polyunsaturated fatty acid lipoxygenase ALOX15; remark: listed apart in the source
Description: Inhibition of human 15-LOX-1 expressed in Sf9 cells assessed as reduction in conversion of arachidonic acid to 15-HETE pre-incubated 5 min before arachidonic acid substrate addition by HPLC-UV spectroscopy

[3] = biological target: T1, Polyunsaturated fatty acid lipoxygenase ALOX15; conditions: l1236
Description: as §1

SMILES | IC50 [1] [µM] | IC50 [2] [µM] | IC50 [3]
O=C(Nc1ccc(F)cn1)c1cn[nH]n1 | 3.11 | 3.97 | –
Clc1ccc2nc(-c3n[nH]c(Cl)c3Cl)oc2c1 | 0.034 | 0.002 | –
Cc1c(C(=O)Nc2ccc(F)cc2Cl)n[nH]c1[Si](C)(C)C | 1.33 | 0.672 | –
O=C(Nc1ccccn1)c1cc[nH]n1 | 3.41 | 1.21 | –
O=C(Nc1ccc(F)cc1Cl)c1n[nH]cc1[N+](=O)[O-] | 0.616 | 5.9 | –
O=C(Nc1ccc(F)cc1Cl)c1n[nH]cc1-c1ccccc1 | – | – | Not Active
c1ccc2oc(-c3cc[nH]n3)nc2c1 | 0.638 | 3.27 | –
O=C(Nc1ccc(F)cc1)c1cn[nH]n1 | 2.43 | 0.947 | –
Nc1cc(C(=O)Nc2ccc(F)cc2Cl)n[nH]1 | 0.334 | 5.98 | –
O=C(Nc1cnc2ccccc2c1)c1cn[nH]n1 | 1.02 | – | –
CS(=O)(=O)Nc1cc(C(=O)Nc2ccc(F)cc2Cl)n[nH]1 | – | – | Not Active
